This is an account of results in patent US11629171B2, “Beta-hairpin peptidomimetics” (POLYPHOR AG, priority 2017, dated 2023).

≈ marks a conversion by molar mass, not a printed value. Where a SMILES comes first, the peptide text is derived from it. Bridges are numbered along the chain shown (N, C = ends). Roman numbers before positions name the chains, in order. [ ]: non-standard residue; d: D form. Tle = CC(C)(C)[C@H](N)C(=O)O; NMeV = CN[C@H](C(=O)O)C(C)C; dDab = NCC[C@@H](N)C(=O)O; hSer = N[C@@H](CCO)C(=O)O; Orn = NCCC[C@H](N)C(=O)O; Dab = NCC[C@H](N)C(=O)O; Dap = NC[C@H](N)C(=O)O

Type in all cases: cell-based
Data set [1] concerns human red blood cells (hRBC). Nature of the data set: Hemolysis. The settings on record: red cells of human, 1 h, 200. As to the method:
The peptides were tested for their hemolytic activity against human red blood cells (hRBC). Fresh hRBC were washed four times with phosphate buffered saline (PBS) and centrifuged for 10 min at 3000×g. Compounds (200 μg/mL) were incubated with 20% hRBC (v/v) for 1 h at 37° C. and shaking at 300 rpm. A value of 0% and 100% cell lysis, respectively, was determined by incubation of hRBC in the presence of PBS containing 10% water and 2% Triton X-100 in H2O, respectively. The samples were centrifuged, the supernatants were ˜7.5-fold diluted in PBS buffer and the optical densities (OD) were measured at 540 nm and blank corrected. The 100% lysis value (OD540Triton X-100) gave an OD540 of approximately 0.5-1.0.
Percent hemolysis was calculated as follows: (OD540peptide/OD540Triton X-100)×100%.

Data set [2] relates to Acinetobacter baumannii DSM 30008. The settings on record: DSM 30008. How it is done: (§1) The in vitro antimicrobial activities of the peptides were determined in 96-well plates (Greiner, polystyrene) by the standard CLSI broth microdilution method (Clinical and Laboratory Standards Institute 2014. Performance standards for antimicrobial susceptibility testing, 24th informational supplement. Approved standard CLSI M100-S24; Clinical and Laboratory Standards Institute, Wayne, Pa.). The following microorganisms were used to determine antibiotic activity of the peptides: Escherichia coli ATCC 25922, Klebsiella pneumoniae SSI #3010^a), Acinetobacter baumannii DSM 30008, Pseudomonas aeruginosa ATCC 27853 and the clinical isolates Escherichia coli 926415^b), Klebsiella pneumoniae 968733^b), Acinetobacter baumannii 872842^b), Enterobacter cloacae 848840^b) and Escherichia coli MCR-1 Af45^c). Before preparation of inocula, Escherichia coli MCR-1 Af45 was subcultured on Mueller-Hinton II (MH-cation adjusted) agar containing 2 μg/mL colistin. ^a) Obtained from Statens Serum Institut (SSI), Copenhagen, Denmark^b) Obtained from International Health Management Associates, Inc. (IHMA Europe Sàrl), Epalinges, Switzerland^c) Obtained from Prof. Patrice Nordmann, University of Fribourg, Fribourg, Switzerland
(§2) Inocula of the microorganisms were diluted into Mueller-Hinton II (MH-cation adjusted) broth and compared with a 0.5 McFarland standard to give appr. 10^6 colony forming units (CFU)/mL. Aliquots (90 μL) of inoculum were added to 10 μL of MH-II broth+P-80 (Polysorbate 80, 0.002% final concentration, v/v) containing the peptide in serial two-fold dilutions. Antimicrobial activities of the peptides were expressed as the minimal inhibitory concentration (MIC) in μg/mL at which no visible growth was observed after 18-20 hours of incubation at 35° C.

For data set [3], the system named is Pseudomonas aeruginosa ATCC 27853. The settings on record: ATCC 27853. How it is done:
as §1, §2

Data set [4] relates to Escherichia coli ATCC 25922. The following applies: ATCC 25922. As to the method: as §1, §2
In data set [5] the test system is Klebsiella pneumoniae SSI #3010. The following applies: SSI #3010. How it is done:
as §1, §2

The term MIC denotes the lowest concentration that inhibits growth of the organism. Read a high MIC as a need for much substance. In the case of `CC(=O)N[C@H](C(=O)N[C@H]1CCCNC(=O)[C@@H](CCCCN)NC(=O)[C@H](C(C)(C)C)NC(=O)[C@H](CO)NC(=O)[C@H](Cc2c[nH]c3ccccc23)NC(=O)[C@H](CCO)NC(=O)[C@@H](CCN)NC(=O)[C@H](CCC(=O)N[C@@H](CCN)C(=O)N[C@H](C(=O)N[C@@H](CN)C(=O)N[C@H]2CCNC(=O)[C@H]([C@@H](C)O)NC(=O)[C@H](CCN)NC(=O)[C@H](CCN)NC(=O)[C@H](CC(C)C)NC(=O)[C@@H](CC(C)C)NC(=O)[C@H](CCN)NC2=O)[C@@H](C)O)NC(=O)[C@H](CO)NC(=O)[C@H](Cc2ccc(O)cc2)NC1=O)C(C)C` [Ex. 30] (I: Ac-V[Orn]YSE[dDab][hSer]WS[Tle][dK] / II: [Dab]T[Dap][Dab][Dab][dL]L[Dab][Dab]T; lactam I:2-I:C, II:4-II:C; amide I:5-II:N), in data set [1], the “Hemolysis at 200 μg/mL” value is on record as less than 1%. In addition, the MIC was 0.125 µg/mL (≈ 0.0532 µM) in data set [2], 0.25 µg/mL (≈ 0.106 µM) in data set [3], 0.0625 µg/mL (≈ 0.0266 µM) in data set [4] and 0.125 µg/mL (≈ 0.0532 µM) in data set [5].

`CC(=O)N[C@H](C(=O)N[C@H](C(=O)N[C@@H](Cc1ccc(O)cc1)C(=O)N[C@@H](CCN)C(=O)N[C@@H](CCC(=O)N[C@@H](CCN)C(=O)N[C@H](C(=O)N[C@@H](CN)C(=O)N[C@H]1CCNC(=O)[C@H]([C@@H](C)O)NC(=O)[C@H](CCN)NC(=O)[C@H](CCN)NC(=O)[C@H](CC(C)C)NC(=O)[C@@H](CC(C)C)NC(=O)[C@H](CCN)NC1=O)[C@@H](C)O)C(=O)N[C@H](CCN)C(=O)N[C@H](C(=O)N[C@@H](Cc1c[nH]c2ccccc12)C(=O)N[C@@H](CCC(=O)O)C(=O)N[C@H](C(=O)N[C@@H](C)C(=O)N[C@@H](CO)C(N)=O)C(C)(C)C)[C@@H](C)O)[C@@H](C)O)C(C)C` [Ex. 230] (I: Ac-VTY[Dab]E[dDab]TWE[Tle]AS-NH2 / II: [Dab]T[Dap][Dab][Dab][dL]L[Dab][Dab]T; amide I:5-II:N; lactam II:4-II:C): in data set [1], the “Hemolysis at 200 μg/mL” value is less than 1%. In addition, the MIC in data set [2] came to 1 µg/mL (≈ 0.41 µM); in data set [3] it was 1 µg/mL (≈ 0.41 µM); in data set [4], 0.25 µg/mL (≈ 0.103 µM); in data set [5], 0.5 µg/mL (≈ 0.205 µM).

Consider `CC(=O)N[C@@H](CCN)C(=O)N[C@H](C(=O)N[C@@H](CN)C(=O)N[C@@H](Cc1ccc(O)cc1)C(=O)N[C@H]1CSSC[C@@H](C(=O)N[C@H](C(N)=O)C(C)(C)C)NC(=O)[C@H](Cc2c[nH]c3ccccc23)NC(=O)[C@H](CO)NC(=O)[C@@H](CCN)NC(=O)[C@H](CCC(=O)N[C@@H](CCN)C(=O)N[C@H](C(=O)N[C@@H](CN)C(=O)N[C@H]2CCNC(=O)[C@H]([C@@H](C)O)NC(=O)[C@H](CCN)NC(=O)[C@H](CCN)NC(=O)[C@H](CC(C)C)NC(=O)[C@@H](CC(C)C)NC(=O)[C@H](CCN)NC2=O)[C@@H](C)O)NC1=O)C(C)C` [Ex. 13] (I: Ac-[Dab]V[Dap]YCE[dDab]SWC[Tle]-NH2 / II: [Dab]T[Dap][Dab][Dab][dL]L[Dab][Dab]T; disulfide I:5-I:10; amide I:6-II:N; lactam II:4-II:C), for which the “Hemolysis at 200 μg/mL” value in data set [1] is reported as less than 1%. For the same compound, the MIC in data set [2], in data set [3], in data set [4] and in data set [5] was 0.125 µg/mL (≈ 0.0538 µM) throughout.

Consider `CN[C@H](C(=O)N[C@H](C(=O)N[C@@H](Cc1ccc(O)cc1)C(=O)N[C@H]1CSSC[C@@H](C(=O)N[C@H](C(=O)N[C@@H](C)C(=O)N[C@@H](CO)C(N)=O)C(C)C)NC(=O)[C@H](Cc2c[nH]c3ccccc23)NC(=O)[C@H](CCO)NC(=O)[C@@H](CCN)NC(=O)[C@H](CCC(=O)N[C@@H](CCN)C(=O)N[C@H](C(=O)N[C@@H](CCN)C(=O)N[C@H]2CCNC(=O)[C@H]([C@@H](C)O)NC(=O)[C@H](CCN)NC(=O)[C@H](CCN)NC(=O)[C@H](CC(C)C)NC(=O)[C@@H](CC(C)C)NC(=O)[C@H](CCN)NC2=O)[C@@H](C)O)NC1=O)[C@@H](C)O)C(C)C` [Ex. 183] (I: H-[NMeV]TYCE[dDab][hSer]WCVAS-NH2 / II: [Dab]T[Dab][Dab][Dab][dL]L[Dab][Dab]T; disulfide I:4-I:9; amide I:5-II:N; lactam II:4-II:C), for which the “Hemolysis at 200 μg/mL” value in data set [1] is reported as less than 1%. For the same compound, the MIC was found to be 0.25 µg/mL (≈ 0.105 µM) in data set [2], 0.125 µg/mL (≈ 0.0524 µM) in data set [3], 0.125 µg/mL (≈ 0.0524 µM) in data set [4] and 0.25 µg/mL (≈ 0.105 µM) in data set [5].

As for `CC(=O)N[C@@H](CCN)C(=O)N[C@H](C(=O)N[C@@H](CN)C(=O)N[C@@H](Cc1ccc(O)cc1)C(=O)N[C@H]1CSSC[C@@H](C(=O)N[C@H](C(N)=O)C(C)(C)C)NC(=O)[C@H](Cc2c[nH]c3ccccc23)NC(=O)[C@H](CCN)NC(=O)[C@@H](CCN)NC(=O)[C@H](CCC(=O)N[C@@H](CCN)C(=O)N[C@H](C(=O)N[C@@H](CN)C(=O)N[C@H]2CCNC(=O)[C@H]([C@@H](C)O)NC(=O)[C@H](CCN)NC(=O)[C@H](CCN)NC(=O)[C@H](CC(C)C)NC(=O)[C@@H](CC(C)C)NC(=O)[C@H](CCN)NC2=O)[C@@H](C)O)NC1=O)C(C)C` [Ex. 14] (I: Ac-[Dab]V[Dap]YCE[dDab][Dab]WC[Tle]-NH2 / II: [Dab]T[Dap][Dab][Dab][dL]L[Dab][Dab]T; disulfide I:5-I:10; amide I:6-II:N; lactam II:4-II:C), the “Hemolysis at 200 μg/mL” value in data set [1] is listed as less than 1%. In addition, the MIC worked out at 0.5 µg/mL (≈ 0.214 µM) in data set [2], 0.25 µg/mL (≈ 0.107 µM) in data set [3], 0.25 µg/mL (≈ 0.107 µM) in data set [4] and 0.5 µg/mL (≈ 0.214 µM) in data set [5].

On to `CC(=O)N[C@H](C(=O)N[C@H](C(=O)N[C@@H](Cc1ccc(O)cc1)C(=O)N[C@H]1CC(=O)NCC[C@@H](C(=O)N[C@H](C(=O)N[C@@H](C)C(=O)N[C@@H](CO)C(N)=O)C(C)C)NC(=O)[C@H](Cc2c[nH]c3ccccc23)NC(=O)[C@H](CCO)NC(=O)[C@@H](CCN)NC(=O)[C@H](CCC(=O)N[C@@H](CCN)C(=O)N[C@H](C(=O)N[C@@H](CCN)C(=O)N[C@H]2CCNC(=O)[C@H]([C@@H](C)O)NC(=O)[C@H](CCN)NC(=O)[C@H](CCN)NC(=O)[C@H](CC(C)C)NC(=O)[C@@H](CC(C)C)NC(=O)[C@H](CCN)NC2=O)[C@@H](C)O)NC1=O)[C@@H](C)O)C(C)C` [Ex. 187] (I: Ac-VTYDE[dDab][hSer]W[Dab]VAS-NH2 / II: [Dab]T[Dab][Dab][Dab][dL]L[Dab][Dab]T; lactam I:4-I:9, II:4-II:C; amide I:5-II:N), for which the “Hemolysis at 200 μg/mL” value in data set [1] is on record as less than 1%. Further, the minimum inhibitory concentration (MIC) stood at 0.5 µg/mL (≈ 0.208 µM) in data set [2], 0.5 µg/mL (≈ 0.208 µM) in data set [3], 0.125 µg/mL (≈ 0.052 µM) in data set [4] and 0.25 µg/mL (≈ 0.104 µM) in data set [5].

As for `CC(=O)N[C@H](C(=O)N[C@H]1CCCNC(=O)[C@@H](CC(N)=O)NC(=O)[C@H](C(C)(C)C)NC(=O)[C@H](CO)NC(=O)[C@H](Cc2c[nH]c3ccccc23)NC(=O)[C@H](CCO)NC(=O)[C@@H](CCN)NC(=O)[C@H](CCC(=O)N[C@@H](CCN)C(=O)N[C@H](C(=O)N[C@@H](CN)C(=O)N[C@H]2CCNC(=O)[C@H]([C@@H](C)O)NC(=O)[C@H](CCN)NC(=O)[C@H](CCN)NC(=O)[C@H](CC(C)C)NC(=O)[C@@H](CC(C)C)NC(=O)[C@H](CCN)NC2=O)[C@@H](C)O)NC(=O)[C@H](CO)NC(=O)[C@H](Cc2ccc(O)cc2)NC1=O)C(C)C` [Ex. 19] (I: Ac-V[Orn]YSE[dDab][hSer]WS[Tle][dN] / II: [Dab]T[Dap][Dab][Dab][dL]L[Dab][Dab]T; lactam I:2-I:C, II:4-II:C; amide I:5-II:N), the “Hemolysis at 200 μg/mL” value in data set [1] is recorded as less than 1%. In addition, the MIC in data set [2] amounted to 0.125 µg/mL (≈ 0.0536 µM); in data set [3], 0.25 µg/mL (≈ 0.107 µM); in data set [4], 0.125 µg/mL (≈ 0.0536 µM); in data set [5], 0.125 µg/mL (≈ 0.0536 µM).
